From patent publication US8519149B2, “Tricyclic compounds as mPGES-1 inhibitors” (Glenmark Pharmaceuticals S.A., priority 2010, dated 2013)

Target: T1, Recombinant human mPGES-1 (Homo sapiens, UniProt O14684)
T1 sequence (O14684 1-152): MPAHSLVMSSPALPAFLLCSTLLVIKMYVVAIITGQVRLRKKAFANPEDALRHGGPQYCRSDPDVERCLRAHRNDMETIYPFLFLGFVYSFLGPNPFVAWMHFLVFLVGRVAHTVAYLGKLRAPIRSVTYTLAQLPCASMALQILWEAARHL
Test: In-vitro mPGES-1 enzyme inhibition assay (PGE2 formation from PGH2, HTRF detection)
Assay type: biochemical
Conditions: for inhibition at 1 µM: 1 μM test compound, read-out: Percentage inhibition at 1 μM; for inhibition at 1 µM / inhibition at 10 µM: recombinant human mPGES-1 microsomal fraction; for inhibition at 10 µM: 10 μM test compound, read-out: Percentage inhibition at 10 μM; for IC50: class symbols, selected examples
Text: In-Vitro Protocol for Screening of mPGES-1 Inhibitors: mPGES-1 (microsomal prostaglandin E synthase-1) is a microsomal enzyme that converts endoperoxide substrate PGH2 (prostaglandin H2) to product PGE2 (prostaglandin E2) by isomerization in the presence of reduced glutathione (GSH). mPGES-1 inhibitors were screened by assessing their ability to inhibit formation of PGE2 from PGH2 in presence of mPGES-1 using anti-PGE2 antibody based detection method. […] Assay was set up using crude microsomal fractions at protein concentration of 40-60 μg/mL. […] Final concentration of DMSO in reaction was 0.5% (v/v). Negative controls comprised of all assay reagents except the enzyme. Positive controls comprised of enzyme reaction in the absence of any inhibitor. […] Reaction was stopped by addition of Stannous chloride (11 mg/ml) and PGE2 levels were measured ([…] et al. […] Inhibition of mPGES-1 enzyme activity was measured using percent of reaction occurring in the positive control. Concentration response curves were plotted using percent inhibition of maximum enzyme reaction. IC50 value was calculated from concentration response curve by nonlinear regression analysis using GraphPad PRISM software.

| Compound | inhibition at 1 µM | inhibition at 10 µM | IC50 |
| --- | --- | --- | --- |
| Cc1cc2c(o1)c(C(=O)Nc1ccc(Br)cn1)cc1nc(Nc3c(Cl)cccc3Cl)[nH]c12 [Example-71, N-(5-Bromopyridin-2-yl)-2-[(2,6-dichlorophenyl)amino]-7-methyl-1H-furo[3,2-e]benzimidazole-5-carboxamide] | 93.9% | 98.4% | < 0.05 µM |
| CC1(C)Cc2c(c(C(=O)Nc3ccc(C(F)(F)F)cc3)cc3nc(Nc4ccccc4Cl)[nH]c23)O1 [Example-89, 2-[(2-Chlorophenyl)amino]-7,7-dimethyl-N-[4-(trifluoromethyl)phenyl]-7,8-dihydro-1H-furo[3,2-e]benzimidazole-5-carboxamide] | 97.1% | 97.1% | < 0.05 µM |
| CC1(C)Cc2c(c(C(=O)Nc3cccc(C(F)(F)F)c3)cc3nc(NCc4ccccc4Cl)[nH]c23)O1 [Example-144, 2-((2-Chlorobenzyl)amino)-7,7-dimethyl-N-(3-(trifluoromethyl)phenyl)-7,8-dihydro-1H-benzofuro[4,5-d]imidazole-5-carboxamide] | 37.3% | 46% | – |
| CC1(C)CCCC(NC(=O)c2cc3nc(Nc4c(Cl)cncc4Cl)[nH]c3c3c2OC(C)(C)C3)C1 (centres unmarked) [Example-14, 2-[(3,5-Dichloropyridin-4-yl)amino]-N-(3,3-dimethylcyclohexyl)-7,7-dimethyl-7,8-dihydro-1H-furo[3,2-e]benzimidazole-5-carboxamide] | 100% | 100% | < 0.05 µM |
| Cn1c(Nc2c(F)cccc2Cl)nc2cc(C(=O)Nc3cccc(C(F)(F)F)c3)c3c(c21)CC(C)(C)O3 [Example-139, 2-((2-Chloro-6-fluorophenyl)amino)-1,7,7-trimethyl-N-(3-(trifluoromethyl)phenyl)-7,8-dihydro-1H-benzofuro[4,5-d]imidazole-5-carboxamide] | 95.9% | 99.2% | < 0.05 µM |
| Cc1cc(C(F)(F)F)ccc1NC(=O)c1cc2nc(Nc3c(F)cccc3Cl)[nH]c2c2c1OC(C)(C)C2 [Example-113, 2-[(2-Chloro-6-fluorophenyl)amino]-7,7-dimethyl-N-[2-methyl-4-(trifluoromethyl)phenyl]-7,8-dihydro-1H-furo[3,2-e]benzimidazole-5-carboxamide] | 99.4% | 98.7% | < 0.05 µM |
| CCC(C)(C)NC(=O)c1cc2nc(Nc3c(Cl)cccc3Cl)[nH]c2c2c1OC(C)(C)C2 [Example-41, 2-[(2,6-Dichlorophenyl)amino]-7,7-dimethyl-N-(2-methylbutan-2-yl)-7,8-dihydro-1H-furo[3,2-e]benzimidazole-5-carboxamide] | 99.2% | 95.7% | < 0.05 µM |
| CC1(C)Cc2c(c(C(=O)Nc3ccc(F)c(C(F)(F)F)c3)cc3nc(Nc4c(F)cccc4Cl)[nH]c23)O1 [Example-104, 2-[(2-Chloro-6-fluorophenyl)amino]-N-[4-fluoro-3-(trifluoromethyl)phenyl]-7,7-dimethyl-7,8-dihydro-1H-furo[3,2-e]benzimidazole-5-carboxamide] | 100% | 92% | < 0.05 µM |
| CC1(C)Cc2c(c(C(=O)Nc3ccc(N4CCCC4)nc3)cc3nc(Nc4c(Cl)cccc4Cl)[nH]c23)O1 [Example-96, 2-[(2,6-Dichlorophenyl)amino]-7,7-dimethyl-N-[6-(pyrrolidin-1-yl)pyridin-3-yl]-7,8-dihydro-1H-furo[3,2-e]benzimidazole-5-carboxamide] | 90.4% | 95.1% | < 0.05 µM |
| CC1(C)Cc2c(c(C(=O)Nc3ccc(C(F)(F)F)cc3F)cc3nc(Nc4c(F)cccc4Cl)[nH]c23)O1 [Example-112, 2-[(2-Chloro-6-fluorophenyl)amino]-N-[2-fluoro-4-(trifluoromethyl)phenyl]-7,7-dimethyl-7,8-dihydro-1H-furo[3,2-e]benzimidazole-5-carboxamide] | 96.8% | 96.2% | < 0.05 µM |
| CC1(C)Cc2c(c(C(=O)NCc3ccccc3C(F)(F)F)cc3nc(Nc4c(F)cccc4Cl)[nH]c23)O1 [Example-80, 2-[(2-Chloro-6-fluorophenyl)amino]-7,7-dimethyl-N-[2-(trifluoromethyl)benzyl]-7,8-dihydro-1H-furo[3,2-e]benzimidazole-5-carboxamide] | 93.2% | 92% | < 0.05 µM |
| C[C@@H](NC(=O)c1cc2nc(Nc3c(Cl)cncc3Cl)[nH]c2c2c1OC(C)(C)C2)C(C)(C)C [Example-6] | 93.4% | 95.5% | < 0.05 µM |
| CCCCCNC(=O)c1cc2nc(Nc3c(Cl)cccc3Cl)[nH]c2c2c1OC(C)(C)C2 [Example-9, 2-[(2,6-Dichlorophenyl)amino]-7,7-dimethyl-N-pentyl-7,8-dihydro-1H-furo[3,2-e]benzimidazole-5-carboxamide] | 83% | 83.1% | < 0.05 µM |
| Cc1ccnc(Cl)c1Nc1nc2cc(C(=O)Nc3cccc(C(F)(F)F)c3)c3c(c2[nH]1)CC(C)(C)O3 [Example-137, 2-((2-Chloro-4-methylpyridin-3-yl)amino)-7,7-dimethyl-N-(3-(trifluoromethyl)phenyl)-7,8-dihydro-1H-benzofuro[4,5-d]imidazole-5-carboxamide] | 95.3% | 100% | < 0.05 µM |
| CC1(C)Cc2c(c(C(=O)Nc3ccc(C(F)(F)F)cc3)cc3nc(Nc4c(Cl)cncc4Cl)[nH]c23)O1 [Example-10, 2-[(3,5-Dichloropyridin-4-yl)amino]-7,7-dimethyl-N-[4-(trifluoromethyl)phenyl]-7,8-dihydro-1H-furo[3,2-e]benzimidazole-5-carboxamide] | 83.4% | 91.8% | – |

Second part, the compound after the results:

| inhibition at 1 µM | inhibition at 10 µM | IC50 | Compound |
| --- | --- | --- | --- |
| 97.5% | 93.1% | < 0.05 µM | Cc1nc2c(o1)c(C(=O)NCC1CCCCC1)cc1nc(Nc3c(Cl)cccc3Cl)[nH]c12 [Example-183, N-(Cyclohexylmethyl)-7-[(2,6-dichlorophenyl)amino]-2-methyl-8H-imidazo[4,5-e][1,3]benzoxazole-4-carboxamide] |
| 98.9% | 99.7% | < 0.05 µM | Cn1c(Nc2c(F)cccc2Cl)nc2cc(C(=O)Nc3ccc(C(F)(F)F)cn3)c3c(c21)CC(C)(C)O3 [Example-157, 2-((2-Chloro-6-fluorophenyl)amino)-1,7,7-trimethyl-N-(5-(trifluoromethyl)pyridin-2-yl)-7,8-dihydro-1H-benzofuro[4,5-d]imidazole-5-carboxamide] |
| 99.2% | 100% | – | CC1(C)Cc2c(c(C(=O)Nc3ccc(C(F)(F)F)cc3F)cc3nc(Nc4c(Cl)cncc4Cl)[nH]c23)O1 [Example-194, 2-((3,5-Dichloropyridin-4-yl)amino)-N-(2-fluoro-4-(trifluoromethyl)phenyl)-7,7-dimethyl-7,8-dihydro-1H-benzofuro[4,5-d]imidazole-5-carboxamide] |
| 98.9% | 100% | < 0.05 µM | CC1(C)Cc2c(c(C(=O)Nc3cc(C4CC4)ccc3F)cc3nc(Nc4c(Cl)cccc4Cl)[nH]c23)O1 [Example-159, N-(5-Cyclopropyl-2-fluorophenyl)-2-((2,6-dichlorophenyl)amino)-7,7-dimethyl-7,8-dihydro-1H-benzofuro[4,5-d]imidazole-5-carboxamide] |
| 98.7% | 99.7% | < 0.05 µM | Cc1ccc(NC(=O)c2cc3nc(Nc4c(Cl)cncc4Cl)[nH]c3c3c2OC(C)(C)C3)c(Cl)c1 [Example-198, N-(2-Chloro-4-methylphenyl)-2-((3,5-dichloropyridin-4-yl)amino)-7,7-dimethyl-7,8-dihydro-1H-benzofuro[4,5-d]imidazole-5-carboxamide] |
| 96.4% | 94.7% | < 0.05 µM | CC1(C)Cc2c(c(C(=O)Nc3cc(F)c(F)cc3F)cc3nc(Nc4c(F)cccc4Cl)[nH]c23)O1 [Example-193, 2-((2-Chloro-6-fluorophenyl)amino)-7,7-dimethyl-N-(2,4,5-trifluorophenyl)-7,8-dihydro-1H-benzofuro[4,5-d]imidazole-5-carboxamide] |
| 96.1% | 96.3% | < 0.05 µM | CC1(C)Cc2c(c(C(=O)Nc3ccc(C(F)(F)F)nc3)cc3nc(Nc4c(F)cccc4Cl)[nH]c23)O1 [Example-191, 2-((2-Chloro-6-fluorophenyl)amino)-7,7-dimethyl-N-(6-(trifluoromethyl)pyridin-3-yl)-7,8-dihydro-1H-benzofuro[4,5-d]imidazole-5-carboxamide] |
| 98.4% | 96.5% | – | Cn1c(Nc2c(Cl)cncc2Cl)nc2cc(C(=O)Nc3cccc(C(F)(F)F)c3)c3c(c21)CC(C)(C)O3 [Example-214, 2-((3,5-Dichloropyridin-4-yl)amino)-1,7,7-trimethyl-N-(3-(trifluoromethyl)phenyl)-7,8-dihydro-1H-benzofuro[4,5-d]imidazole-5-carboxamide] |
